Experimental data: patent US12635715B2, “Isofucosterol and combinations of isofucosterol and a multiplicity of sterols as a nutrient for animals” (APIX BIOSCIENCES, priority 2022, dated 2026)

Test system: honeybee colonies (Apidea nucs)
Test: Brood production in Apidea nucs fed isofucosterol diets (Example 3)
Type: in vivo, honeybees
Settings: as the concentration of isofucosterol in the diet increased; N>3 colonies/treatment
Protocol: Honeybees: Fully functional insulated styrofoam Apidea nucs comprised 5 mini frames populated with adult workers and 1 mated laying queen bee were populated with 300-400 ml of young adult workers (˜N<1.000 bees of mixed ages).
Each treatment was tested with 3-6 colonies; each colony was fed with a 60-100 g patty (solid diet) on the top feeder fitted with a mesh floor. Diet was fed on the first day and again on day 6; the quantity consumed was measured on day 6 and day 15. If no larvae or eggs/queen are observed by day 6 then the experiment is terminated. The number of capped brood cells was counted on day 15. The number of bee seams was estimated during each inspection. Sugar syrup (34%) and water was provided in feeders inside the tent to prevent carbohydrate starvation and to stimulate foraging activity.
In Example 3, bees were fed with a diet containing 10-18% protein, 6% fat, 1% vitamins/minerals and >75% carbohydrates.
As the concentration of isofucosterol increased, the amount of brood produced in each colony increased (N>3 colonies/treatment). The pupae, and the number of new adults was counted over the entire 10-week period.

Q: For `C/C=C(/CC[C@@H](C)[C@H]1CC[C@H]2[C@@H]3CC=C4C[C@@H](O)CC[C@]4(C)[C@H]3CC[C@]12C)C(C)C` [isofucosterol, Isofucosterol], which “amount of brood produced in each colony” value is on record?
A: increased
